The values below come from publication PMC5665883, “Antithrombotic properties of JJ1, a potent and novel thrombin inhibitor” (Scientific Reports, 2017).

Marks after values point to notes of the source that are not given here.

The target of one assay is Trypsin. Briefly: Chromogenic substrate assay, Ki (Dixon). It counts as biochemical, human. The note with it: for Ki: Trypsin, mean ± SD (n = 5). The protocol: (§1) Chromogenic substrate assays were performed using a Labsystems IEMS (Cergy Pontoise, France) microtiter plate reader. K i values were calculated according to the method of Dixon[65]. In each assay, the compound was tested at a minimum of seven concentrations, in duplicate, to obtain an inhibition curve. The following general procedures were adopted for each assay. In a 96-well microtiter plate, 25 μL of inhibitor solution or buffer was added to 50 μL of substrate. The enzyme solution (25 μL) was added just before the plate was placed in the microtiter plate reader for 1 h at 37 °C. The hydrolysis of the substrate yields p-nitroaniline, which was continuously monitored spectrophotometrically at 405 nm. The maximal initial reaction rates were calculated and expressed as millioptical density per minute.

Assay [1] can be described thus: FeCl3-induced arterial thrombosis model. It counts as in vivo, C57BL/6 mice. Particulars: mice, 150 μg/mouse. The protocol:
The FeCl3-induced thrombosis mouse model was established as previously described. Male C57BL/6 mice were fasted overnight and were administered JJ1 in DMSO by intravenous injection. Then, mice were anesthetized using 3% isoflurane (Forane®, Choongwae Pharma. Corp., Seoul, Korea) and injected intravenously with 0.1 mL 0.1% rhodamine 6 G (Sigma). A testicular artery (200 μm in diameter) was carefully exposed and a cotton thread (200 μm in diameter) saturated with 0.25 mol/L FeCl3 was applied to the adventitial surface. After 5 min, the cotton thread was removed, and the wound was flushed with saline solution. Thrombus formation was monitored at 35 °C by 3-dimensional imaging as previously described. The size and time of thrombus formation were monitored, and the findings were scored as follows: no thrombus, 0; small thrombus (50 μm × 75 μm), 1; medium-sized thrombus (100 μm × 150 μm), 2; large thrombus (200 μm × 300 μm), 3. The time from FeCl3-mediated endothelial injury to occlusion of the testicular artery by a large thrombus was measured.

Another assay has as its target T1, Factor Xa (Homo sapiens, UniProt P00742).
T1 construct: thrombin versus trypsin, factor Xa, elastase, plasmin, protein Ca, streptokinase, tPA, and urokinase; purchased Haematologic Technologies (Essex Junction, VT)
Briefly: Chromogenic substrate assay, Ki (Dixon). It counts as biochemical. Particulars: for Ki: Factor Xa.

The next assay concerns the target Urokinase (Homo sapiens, UniProt P00749). Nature of the assay: Chromogenic substrate assay, Ki (Dixon). It counts as biochemical. Particulars: for Ki: Urokinase.
The target in the next assay is T2, Protein Ca (Homo sapiens, UniProt P04070).
T2 construct: thrombin versus trypsin, factor Xa, elastase, plasmin, protein Ca, streptokinase, tPA, and urokinase
T2 sequence (P04070 212-450 limits assumed): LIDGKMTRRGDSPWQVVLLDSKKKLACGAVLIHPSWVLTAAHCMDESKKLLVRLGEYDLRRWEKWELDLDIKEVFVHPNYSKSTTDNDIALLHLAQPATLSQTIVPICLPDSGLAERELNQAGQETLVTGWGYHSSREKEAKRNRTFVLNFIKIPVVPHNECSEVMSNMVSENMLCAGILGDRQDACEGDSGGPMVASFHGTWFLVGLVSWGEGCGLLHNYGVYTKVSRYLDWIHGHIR
T2 sequence (P04070 43-197 limits assumed): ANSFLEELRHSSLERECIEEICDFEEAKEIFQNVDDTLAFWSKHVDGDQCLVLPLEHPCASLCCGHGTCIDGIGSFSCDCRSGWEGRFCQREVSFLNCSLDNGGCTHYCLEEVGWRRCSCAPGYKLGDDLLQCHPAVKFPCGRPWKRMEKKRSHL
Briefly: Chromogenic substrate assay, Ki (Dixon). It counts as biochemical. Particulars: for Ki: Protein Ca.

A further assay addresses Streptokinase (Homo sapiens, UniProt P00747). Nature of the assay: Chromogenic substrate assay, Ki (Dixon). Type of assay: biochemical. Particulars: for Ki: Streptokinase.
Assay [2] deals with human plasma. Briefly: In vitro aPTT clotting time. The note with it: in vitro, 5.0 μM. It counts as biochemical. The method, then: (§2) The aPTT and PT were determined using a Thrombotimer (Behnk Elektronik, Norderstedt, Germany) in accordance with the manufacturer’s instructions and as previously described. Briefly, citrated normal human plasma (90 μL) was mixed with 10 μL JJ1 and incubated for 1 min at 37 °C. Subsequently, the aPTT assay reagent (100 μL) was added, the plasma sample was incubated for an additional 1 min at 37 °C, 20 mM CaCl2 (100 μL) was added, and the clotting times were recorded. For the PT assays, citrated normal human plasma (90 μL) was mixed with 10 μL JJ1 stock solution and was incubated for 1 min at 37 °C. The PT assay reagent (200 μL), which had been pre-incubated for 10 min at 37 °C, was subsequently added and the clotting time was recorded. The PT results were expressed in seconds and as International Normalized Ratios (INR): INR = (PT sample/PT control)^ISI, where ISI = international sensitivity index. The aPTT results were also expressed in seconds. All experimental protocols (KNUH 2012-01-010) were approved by the Institutional Review Board of Kyungpook National University Hospitals (Daegu, Republic of Korea).

Assay [3] relates to human plasma. Nature of the assay: In vitro PT clotting time. Type of assay: biochemical. Particulars: in vitro, 5.0 μM. The protocol:
as §2

Another assay has as its target tPA (Homo sapiens, UniProt P00750). Nature of the assay: Chromogenic substrate assay, Ki (Dixon). It counts as biochemical. The note with it: for Ki: tPA.
The nature of assay [4]: In vivo tail bleeding time. More on the design: species or system C57BL/6 mice. The note with it: mice, i.v. injection. The protocol: Tail bleeding times were measured by using the method of Dejana et al.[63],[64]. Briefly, C57BL/6 mice were fasted overnight prior to the experiments. One hour after the i.v. administration of JJ1, the tails of the mice were transected at 2 mm from their tips. The bleeding time was defined as the time elapsed until the bleeding stopped. Bleeding times exceeding 15 min were recorded as lasting for 15 min.

The target in the next assay is T3, Plasmin (Homo sapiens, UniProt P00747).
T3 construct: thrombin versus trypsin, factor Xa, elastase, plasmin, protein Ca, streptokinase, tPA, and urokinase
T3 sequence (P00747 581-810 limits assumed): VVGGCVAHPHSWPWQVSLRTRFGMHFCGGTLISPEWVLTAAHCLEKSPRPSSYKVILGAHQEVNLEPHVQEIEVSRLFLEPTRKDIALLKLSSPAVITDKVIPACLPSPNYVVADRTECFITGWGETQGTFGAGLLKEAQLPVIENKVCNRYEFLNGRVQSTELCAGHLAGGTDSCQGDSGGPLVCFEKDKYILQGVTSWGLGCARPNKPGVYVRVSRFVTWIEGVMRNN
T3 sequence (P00747 97-580 limits assumed): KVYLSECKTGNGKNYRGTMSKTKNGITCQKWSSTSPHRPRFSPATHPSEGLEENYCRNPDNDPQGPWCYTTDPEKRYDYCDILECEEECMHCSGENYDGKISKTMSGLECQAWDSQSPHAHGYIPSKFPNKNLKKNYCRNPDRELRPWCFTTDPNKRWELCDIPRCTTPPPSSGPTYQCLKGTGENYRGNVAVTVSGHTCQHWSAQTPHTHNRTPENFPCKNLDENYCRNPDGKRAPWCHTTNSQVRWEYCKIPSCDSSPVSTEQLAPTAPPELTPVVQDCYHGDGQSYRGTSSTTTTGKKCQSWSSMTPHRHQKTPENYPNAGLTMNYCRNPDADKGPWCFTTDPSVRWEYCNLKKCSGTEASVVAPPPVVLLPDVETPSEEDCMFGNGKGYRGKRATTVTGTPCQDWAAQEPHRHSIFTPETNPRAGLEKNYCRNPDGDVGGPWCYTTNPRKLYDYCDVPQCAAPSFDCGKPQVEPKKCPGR
Briefly: Chromogenic substrate assay, Ki (Dixon). The note with it: for Ki: Plasmin. Type of assay: biochemical.

Assay [5] concerns neuropeptide Y receptor type 5. More on the design: method as in PMID 21948594. The note with it: not reported in publications; cited from earlier work.
Details of assay [6]: method as in PMID 21948594. Particulars: not reported in publications; cited from earlier work.
A further assay has as its target T4, human α-thrombin (Homo sapiens, UniProt P00734).
T4 construct: purchased Haematologic Technologies (Essex Junction, VT)
Nature of the assay: Chromogenic substrate assay, Ki (Dixon). It counts as biochemical.

For assay [7], the system named is human plasma. Briefly: In vitro PT clotting time. It counts as biochemical. The note with it: at the maximum antithrombotic dose.
For assay [8], the system named is human plasma. Briefly: In vitro aPTT clotting time. It counts as biochemical. The note with it: at the maximum antithrombotic dose.
For assay [9], the target named is T5, thrombin (Homo sapiens, UniProt P00734).
T5 construct: thrombin solution (150 μL, 10 U/mL) was added; purchased Haematologic Technologies (Essex Junction, VT)
Briefly: Thrombin activity assay (amidolytic activity, S-2238). Type of assay: biochemical. Particulars: α-Thrombin, chromogenic substrate; read-out: IC50, inhibition of amidolytic activity of thrombin (converted).
Procedure: Following a 2-min incubation at 37 °C, thrombin solution (150 μL, 10 U/mL) was added, followed by incubation at 37 °C for 1 min. A solution of the thrombin substrate, S-2238, (150 μL, 1.5 mM) solution was subsequently added and the absorbance at 405 nm was monitored for 120 s using a spectrophotometer (TECAN, Männedorf, Switzerland).

A further assay addresses T6, Elastase (Homo sapiens, UniProt P08246).
T6 sequence (P08246 30-247): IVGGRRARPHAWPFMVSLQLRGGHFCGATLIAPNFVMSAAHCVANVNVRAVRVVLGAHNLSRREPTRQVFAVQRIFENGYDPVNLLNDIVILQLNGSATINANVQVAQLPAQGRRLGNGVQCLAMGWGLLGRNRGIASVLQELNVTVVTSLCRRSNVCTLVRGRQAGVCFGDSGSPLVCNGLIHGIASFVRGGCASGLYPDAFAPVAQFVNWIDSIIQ
Briefly: Chromogenic substrate assay, Ki (Dixon). It counts as biochemical. Particulars: K i Elastase/K i α-thrombin. The protocol:
as §1

In assay [10] the target is T5, thrombin. Nature of the assay: Enzyme-based assay of purchased virtual screening molecules, single dose. It counts as biochemical. Particulars: single concentration of 50 μM. From the text: Prior to the high-throughput virtual screening, we selected the best crystal structure for docking with DOCK 3.6[17] using the selected inhibitors and their physicochemically matched but topologically different decoys. […] Because the earlier enrichment of true positives is more important for high throughput SBVS, we used the value of LogAUC as a metric, selecting 2CF9-H[18] as the best structure. […] Besides, the enrichment at 1% (EF1) was 37.1. The values of LogAUC and EF1 were approximately two-fold higher than the averages (26.1 for LogAUC and 17.1 for EF1) (Figs 1 and S1). Some structures had higher AUC values than that of 2CF9-H, but the value of LogAUC was the highest for 2CF9-H (Fig. S1). The optimization necessitated the calculations of more than 2 million protein and ligand pairs. The high speed of DOCK 3.6 and the in-house Linux cluster system consisting of 128 cores efficiently managed the calculations in three days. Of the candidate molecules having the lowest scores in the high-throughput SBVS, we chose the molecules with desirable geometries and physicochemical properties by a simple manual and visual inspection. […] It is known that the scoring function of virtual screening itself is insufficient to capture such an abnormality. Table S1 and Fig. S2 list the top 40 molecules, which were selected through high-throughput SBVS; we purchased these molecules to measure enzymatic inhibitory activity.

tPA, sequence (P00750 36-562): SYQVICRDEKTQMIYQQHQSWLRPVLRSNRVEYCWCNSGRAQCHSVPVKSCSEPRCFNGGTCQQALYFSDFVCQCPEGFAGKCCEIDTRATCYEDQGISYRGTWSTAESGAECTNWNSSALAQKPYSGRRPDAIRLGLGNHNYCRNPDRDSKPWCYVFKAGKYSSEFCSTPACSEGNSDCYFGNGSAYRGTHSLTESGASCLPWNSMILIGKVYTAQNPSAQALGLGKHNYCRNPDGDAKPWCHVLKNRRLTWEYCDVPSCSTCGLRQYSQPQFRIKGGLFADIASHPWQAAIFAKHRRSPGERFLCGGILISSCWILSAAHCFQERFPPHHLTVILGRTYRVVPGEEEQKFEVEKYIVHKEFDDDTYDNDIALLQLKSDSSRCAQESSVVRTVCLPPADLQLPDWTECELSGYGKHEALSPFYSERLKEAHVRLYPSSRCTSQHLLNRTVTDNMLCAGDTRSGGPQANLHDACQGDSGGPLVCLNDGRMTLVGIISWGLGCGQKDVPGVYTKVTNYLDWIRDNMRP
Streptokinase, sequence (P00747 581-810 limits assumed): as the sequence (P00747 581-810 limits assumed) above
T1 sequence (P00742 235-488 limits assumed): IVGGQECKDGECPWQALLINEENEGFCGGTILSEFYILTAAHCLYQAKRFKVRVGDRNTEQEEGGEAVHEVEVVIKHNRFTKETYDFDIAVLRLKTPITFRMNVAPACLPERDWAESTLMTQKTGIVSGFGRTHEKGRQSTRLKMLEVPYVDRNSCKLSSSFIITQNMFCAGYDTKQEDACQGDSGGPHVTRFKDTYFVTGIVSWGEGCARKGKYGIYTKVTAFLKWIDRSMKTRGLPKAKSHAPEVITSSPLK
T1 sequence (P00742 41-179 limits assumed): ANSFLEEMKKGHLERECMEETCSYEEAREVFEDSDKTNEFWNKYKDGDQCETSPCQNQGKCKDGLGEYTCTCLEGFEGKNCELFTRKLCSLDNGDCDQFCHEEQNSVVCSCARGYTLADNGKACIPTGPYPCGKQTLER

As usually defined, the Ki is the equilibrium dissociation constant of an inhibitor or competing ligand from its target. Low readings indicate a stronger hold on the target, high ones a looser hold on the target. On to `CC1CNc2c(cccc2S(=O)(=O)N[C@@H](CCCNC(=N)N)C(=O)N2CC[C@@H](C)C[C@@H]2C(=O)O)C1` (stereo partly drawn) [Argatroban], for which the inhibition constant (Ki) at Trypsin was 4.2 ± 0.5 µM; on Factor Xa, over 250 µM; on Urokinase it was over 250 µM; on Protein Ca, over 250 µM; at Streptokinase it was over 250 µM; on tPA it was over 250 µM. The compound also yielded a Ki on Plasmin of over 250 µM. In [1] (60 min after FeCl3-treatment, score 0-3), this compound showed a Thrombus size score of 1.15 ± 0.12. The “Time to large thrombus formation” value in assay [1] (FeCl3-induced thrombosis) came out at 61.2 ± 5.1 min. Also, the aPTT with human plasma [2] turned out to be 61.4 ± 0.8 s. In addition, in the assay with human plasma [3], the PT is reported as 27.4 ± 0.7 s. For the same compound, in the assay on human plasma [3], the “PT (INR)” value is 7.40* INR. For the same compound, the Tail bleeding time in [4] (5.08 μg/mouse) is given as 62.2 ± 0.8 s.

As to `c1ccc(Nc2nc(NC3CCCCC3)nc3ccccc23)cc1` [CHEMBL17914], in assay [5], the “Activity linked in ChEMBL” value is reported as “linked with the inhibition of neuropeptide Y receptor type 5”.

As to `c1ccc2c(NC3CCCC3)nc(Nc3ccc4c(c3)OCO4)nc2c1` [CHEMBL578118], the “Activity linked in ChEMBL” value in assay [6] was “antimalarial effects”.

Consider `Oc1ccccc1Nc1nc(NC2CCCC2)c2ccccc2n1` [CHEMBL581623], for which, in assay [6], the “Activity linked in ChEMBL” value was “antimalarial effects”.

Broadly, the IC50 is the concentration that inhibits the measured activity by half. With `CN[C@H](Cc1ccccc1)C(=O)N1CCC[C@H]1C(=O)N[C@H](C=O)CCCN=C(N)N` [Efegatran], the Selectivity ratio at human α-thrombin (K i enzyme/K i α-thrombin) worked out at 1; in the assay with Trypsin (K i Trypsin/K i α-thrombin) it was 0.65; at Factor Xa it was 5411; on Urokinase it was 147; at Protein Ca, 70; at Streptokinase, 82. Also, the results for the Selectivity ratio on tPA, at Elastase and on Plasmin were 88, >14,000 and 28, respectively. The inhibitory constant (Ki) at human α-thrombin (mean ± SD (n = 5)) was 0.017 ± 0.0003 µM; at Trypsin it was 0.011 ± 0.0041 µM; at Factor Xa, 92 ± 9 µM; on Urokinase, 2.5 ± 0.3 µM; at Protein Ca, 1.2 ± 0.15 µM; on Streptokinase, 1.4 ± 0.11 µM. For the same compound, the Ki is 1.5 ± 0.3 µM on tPA and 0.48 ± 0.04 µM on Plasmin. Moreover, in the assay on human plasma [7], the “Prolongation of PT” value is given as 1.61 fold. The “Prolongation of aPTT” value in the assay on human plasma [8] is 1.86 fold. This compound also showed an aPTT in the assay with human plasma [2] of 44.2 ± 0.6 s. Moreover, in the assay on human plasma [3], the PT was determined as 19.2 ± 0.4 s. Further, the “PT (INR)” value with human plasma [3] is given as 3.15* INR. The IC50 on thrombin [9] is 0.025 µM. Besides, the Tail bleeding time in assay [4] (4.17 μg/mouse) is reported as 47.4 ± 1.1 s.

As to `CCN(c1cccc(C)c1)S(=O)(=O)c1cc([N+](=O)[O-])ccc1C` [ZINC04991109], the “Degree of inhibition in the enzyme-based assay” value at thrombin [10] is listed as “inhibitory effects”.

Regarding `COc1ccc(C(=O)NCc2ccco2)cc1S(=O)(=O)N1CCCCC1` [ZINC09063750], the “Degree of inhibition in the enzyme-based assay” value on thrombin [10] is given as “inhibitory effects”.
